Test results published in patent publication EP4722207A1, “OXOISOINDOLINYL-SUBSTITUTED TETRAHYDROPYRIMIDINEDIONE DERIVATIVE AND USE THEREOF” (Gluetacs Therapeutics (Shanghai) Co., Ltd., priority 2023, dated 2024).

What was measured:
Type in all cases: cell-based
Details in all cases: compounds at 50 nM and 500 nM, 24 hours
IKZF3 = target: T1, IKZF3 (Homo sapiens, UniProt Q96SW2+Q9UKT9); test: Western-blot assay, substrate protein degradation in hPBMCs: IKZF3
T1 construct: effects of the compounds of the present disclosure on the expression of target proteins in cells; endogenous in cells; host or cells: human PBMCs (hPBMCs)

IKZF2 = target: T2, IKZF2 (Homo sapiens, UniProt Q96SW2+Q9UKS7); test: Western-blot assay, substrate protein degradation in hPBMCs: IKZF2
T2 construct: effects of the compounds of the present disclosure on the expression of target proteins in cells; endogenous in cells; host or cells: human PBMCs (hPBMCs)

GSPT1 = target: T3, GSPT1 (Homo sapiens, UniProt P15170+Q96SW2); test: Western-blot assay, substrate protein degradation in hPBMCs: GSPT1
T3 construct: effects of the compounds of the present disclosure on the expression of target proteins in cells; endogenous in cells; host or cells: human PBMCs (hPBMCs)

WEE1 = target: T4, WEE1 (Homo sapiens, UniProt P30291+Q96SW2); test: Western-blot assay, substrate protein degradation in hPBMCs: WEE1
T4 construct: effects of the compounds of the present disclosure on the expression of target proteins in cells; endogenous in cells; host or cells: human PBMCs (hPBMCs)

CK1α = target: T5, CK1α (Homo sapiens, UniProt P48729+Q96SW2); test: Western-blot assay, substrate protein degradation in hPBMCs: CK1α
T5 construct: effects of the compounds of the present disclosure on the expression of target proteins in cells; endogenous in cells; host or cells: human PBMCs (hPBMCs)

IKZF1 = target: T6, IKZF1 (Homo sapiens, UniProt Q13422+Q96SW2); test: Western-blot assay, substrate protein degradation in hPBMCs: IKZF1
T6 construct: effects of the compounds of the present disclosure on the expression of target proteins in cells; endogenous in cells; host or cells: human PBMCs (hPBMCs)
T6 sequence (Q13422 whole entry): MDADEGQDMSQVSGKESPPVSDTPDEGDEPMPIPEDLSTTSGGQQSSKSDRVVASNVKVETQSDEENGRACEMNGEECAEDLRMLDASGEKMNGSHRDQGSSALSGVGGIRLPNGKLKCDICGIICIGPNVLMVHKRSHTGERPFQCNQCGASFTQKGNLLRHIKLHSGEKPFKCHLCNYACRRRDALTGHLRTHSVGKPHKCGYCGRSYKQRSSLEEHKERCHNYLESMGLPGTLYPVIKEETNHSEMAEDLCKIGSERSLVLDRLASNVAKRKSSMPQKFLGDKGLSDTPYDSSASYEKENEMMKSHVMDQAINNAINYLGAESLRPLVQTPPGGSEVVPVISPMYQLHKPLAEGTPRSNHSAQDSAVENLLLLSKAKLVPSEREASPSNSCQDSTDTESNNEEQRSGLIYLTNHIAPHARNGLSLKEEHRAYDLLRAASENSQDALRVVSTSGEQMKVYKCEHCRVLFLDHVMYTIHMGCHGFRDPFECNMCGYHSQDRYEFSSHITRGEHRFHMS
T6 sequence (Q96SW2 whole entry): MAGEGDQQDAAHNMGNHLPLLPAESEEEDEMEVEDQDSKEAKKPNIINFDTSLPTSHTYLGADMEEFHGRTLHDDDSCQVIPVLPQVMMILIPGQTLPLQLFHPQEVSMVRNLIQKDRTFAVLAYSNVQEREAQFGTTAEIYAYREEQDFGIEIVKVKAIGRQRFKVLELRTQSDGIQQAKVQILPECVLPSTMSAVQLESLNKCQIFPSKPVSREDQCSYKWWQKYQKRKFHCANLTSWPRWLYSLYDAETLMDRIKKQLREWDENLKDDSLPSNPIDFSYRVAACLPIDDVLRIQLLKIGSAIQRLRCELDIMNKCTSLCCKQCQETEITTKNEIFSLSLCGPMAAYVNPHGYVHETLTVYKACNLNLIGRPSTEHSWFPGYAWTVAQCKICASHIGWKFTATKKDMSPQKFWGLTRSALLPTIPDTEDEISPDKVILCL
T6 sequence (Q16531 whole entry partner): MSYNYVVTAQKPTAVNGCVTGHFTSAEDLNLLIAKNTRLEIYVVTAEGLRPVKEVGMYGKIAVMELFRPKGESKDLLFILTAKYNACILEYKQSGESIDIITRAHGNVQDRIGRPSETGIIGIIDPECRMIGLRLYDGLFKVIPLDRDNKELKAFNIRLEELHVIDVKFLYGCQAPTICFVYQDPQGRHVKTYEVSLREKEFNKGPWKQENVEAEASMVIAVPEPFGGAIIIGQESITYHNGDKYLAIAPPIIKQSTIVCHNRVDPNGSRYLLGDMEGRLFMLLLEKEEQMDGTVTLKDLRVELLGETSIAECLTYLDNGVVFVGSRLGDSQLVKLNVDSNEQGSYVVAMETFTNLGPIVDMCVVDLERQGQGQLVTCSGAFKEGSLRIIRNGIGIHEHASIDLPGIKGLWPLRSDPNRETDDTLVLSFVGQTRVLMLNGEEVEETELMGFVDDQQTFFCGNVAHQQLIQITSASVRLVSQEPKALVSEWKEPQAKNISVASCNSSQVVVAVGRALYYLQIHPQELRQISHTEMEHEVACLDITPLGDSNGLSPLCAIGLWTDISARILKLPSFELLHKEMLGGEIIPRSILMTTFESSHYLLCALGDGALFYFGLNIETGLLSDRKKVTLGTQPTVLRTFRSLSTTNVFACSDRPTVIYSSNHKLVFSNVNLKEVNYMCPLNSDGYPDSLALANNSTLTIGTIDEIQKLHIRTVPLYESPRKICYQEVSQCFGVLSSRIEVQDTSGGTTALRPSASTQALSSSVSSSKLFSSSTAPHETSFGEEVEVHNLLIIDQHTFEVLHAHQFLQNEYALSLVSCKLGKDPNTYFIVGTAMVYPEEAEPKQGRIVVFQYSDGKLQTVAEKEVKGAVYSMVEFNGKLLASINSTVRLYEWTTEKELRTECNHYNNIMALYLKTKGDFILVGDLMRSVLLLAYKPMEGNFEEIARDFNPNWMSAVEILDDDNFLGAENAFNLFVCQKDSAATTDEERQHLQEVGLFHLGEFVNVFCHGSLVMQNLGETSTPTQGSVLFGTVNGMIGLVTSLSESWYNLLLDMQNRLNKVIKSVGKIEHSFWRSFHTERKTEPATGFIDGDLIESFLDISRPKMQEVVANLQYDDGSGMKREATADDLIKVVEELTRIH

T5 sequence (P48729 whole entry): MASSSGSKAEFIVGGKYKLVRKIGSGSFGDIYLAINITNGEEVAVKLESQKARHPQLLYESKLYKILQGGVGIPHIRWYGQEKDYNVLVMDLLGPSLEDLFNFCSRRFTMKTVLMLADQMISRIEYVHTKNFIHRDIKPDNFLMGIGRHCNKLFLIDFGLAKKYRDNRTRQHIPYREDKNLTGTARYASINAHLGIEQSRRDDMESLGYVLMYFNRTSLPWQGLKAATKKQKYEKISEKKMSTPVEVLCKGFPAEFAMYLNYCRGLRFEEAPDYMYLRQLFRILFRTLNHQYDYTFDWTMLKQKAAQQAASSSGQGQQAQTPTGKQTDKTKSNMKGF
T5 sequence (Q96SW2 whole entry): as the sequence (Q96SW2 whole entry) above
T5 sequence (Q16531 whole entry partner): as the sequence (Q16531 whole entry partner) above
T3 sequence (P15170 whole entry): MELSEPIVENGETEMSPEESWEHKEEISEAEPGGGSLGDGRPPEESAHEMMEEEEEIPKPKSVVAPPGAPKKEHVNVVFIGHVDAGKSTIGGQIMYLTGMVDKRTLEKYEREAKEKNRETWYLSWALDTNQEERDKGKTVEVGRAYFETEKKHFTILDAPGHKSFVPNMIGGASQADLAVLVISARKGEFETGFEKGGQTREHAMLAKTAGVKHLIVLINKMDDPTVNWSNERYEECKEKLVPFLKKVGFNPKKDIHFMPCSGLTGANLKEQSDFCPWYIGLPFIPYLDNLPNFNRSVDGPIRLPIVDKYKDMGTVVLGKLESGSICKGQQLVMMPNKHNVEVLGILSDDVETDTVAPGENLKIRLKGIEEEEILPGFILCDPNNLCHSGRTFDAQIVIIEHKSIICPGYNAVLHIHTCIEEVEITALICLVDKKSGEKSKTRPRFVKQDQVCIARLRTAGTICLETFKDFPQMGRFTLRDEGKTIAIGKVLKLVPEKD
T3 sequence (Q96SW2 whole entry): as the sequence (Q96SW2 whole entry) above
T3 sequence (Q16531 whole entry partner): as the sequence (Q16531 whole entry partner) above
T1 sequence (Q9UKT9 whole entry): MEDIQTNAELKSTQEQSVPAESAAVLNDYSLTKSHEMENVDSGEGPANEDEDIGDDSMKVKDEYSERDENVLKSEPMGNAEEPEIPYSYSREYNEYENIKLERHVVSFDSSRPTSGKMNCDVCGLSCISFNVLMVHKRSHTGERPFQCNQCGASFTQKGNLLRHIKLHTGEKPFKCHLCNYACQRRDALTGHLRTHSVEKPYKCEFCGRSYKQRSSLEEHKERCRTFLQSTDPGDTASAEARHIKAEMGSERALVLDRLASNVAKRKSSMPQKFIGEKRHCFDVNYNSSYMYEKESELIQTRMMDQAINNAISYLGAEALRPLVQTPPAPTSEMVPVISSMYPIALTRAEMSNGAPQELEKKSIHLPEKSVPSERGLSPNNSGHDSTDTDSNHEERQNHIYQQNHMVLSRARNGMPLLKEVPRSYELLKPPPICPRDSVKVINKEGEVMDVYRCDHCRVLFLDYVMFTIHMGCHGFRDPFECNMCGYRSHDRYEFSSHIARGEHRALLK
T1 sequence (Q96SW2 whole entry): as the sequence (Q96SW2 whole entry) above
T1 sequence (Q16531 whole entry partner): as the sequence (Q16531 whole entry partner) above
T2 sequence (Q9UKS7 whole entry): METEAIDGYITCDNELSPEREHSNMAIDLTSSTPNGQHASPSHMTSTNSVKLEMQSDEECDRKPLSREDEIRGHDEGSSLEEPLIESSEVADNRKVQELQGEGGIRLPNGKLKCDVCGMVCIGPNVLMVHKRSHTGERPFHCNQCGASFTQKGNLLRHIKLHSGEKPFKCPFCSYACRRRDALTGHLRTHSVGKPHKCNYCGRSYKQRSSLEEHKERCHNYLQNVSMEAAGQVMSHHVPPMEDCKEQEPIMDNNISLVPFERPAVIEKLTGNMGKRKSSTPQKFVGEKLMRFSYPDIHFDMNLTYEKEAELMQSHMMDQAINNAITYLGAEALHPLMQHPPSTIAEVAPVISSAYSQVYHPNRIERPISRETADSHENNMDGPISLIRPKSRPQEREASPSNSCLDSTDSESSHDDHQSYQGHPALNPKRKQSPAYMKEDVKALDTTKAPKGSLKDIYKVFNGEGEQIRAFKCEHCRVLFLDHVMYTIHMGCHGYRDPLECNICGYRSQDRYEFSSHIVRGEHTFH
T2 sequence (Q96SW2 whole entry): as the sequence (Q96SW2 whole entry) above
T2 sequence (Q16531 whole entry partner): as the sequence (Q16531 whole entry partner) above

## CC1(C)CN(Cc2ccc3c(c2)C(=O)N(N2CCC(=O)NC2=O)C3=O)CCN1C(c1ccccc1)c1ccccc1 [GT-06385, 5-((4-benzhydryl-3,3-dimethylpiperazin-1-yl)methyl)-2-(2,4-dioxotetrahydropyrimidin-1(2H)-yl)isoindoline-1,3-dione]
IKZF3
  IKZF3 substrate protein remaining %: A ("A" is defined as 0% ≤ substrate protein remaining % ≤ 80%)
IKZF2
  IKZF2 substrate protein remaining %: B ("B" is defined as 80%< substrate protein remaining %≤ 100%)
GSPT1
  GSPT1 substrate protein remaining %: A ("A" is defined as 0% ≤ substrate protein remaining % ≤ 80%)
WEE1
  WEE1 substrate protein remaining %: A ("A" is defined as 0% ≤ substrate protein remaining % ≤ 80%)
CK1α
  CK1α substrate protein remaining %: B ("B" is defined as 80%< substrate protein remaining %≤ 100%)
IKZF1
  IKZF1 substrate protein remaining %: B ("B" is defined as 80%< substrate protein remaining %≤ 100%)

## O=C1CCN(N2Cc3cc(CN4CCC(c5nccc(Cl)c5Cl)CC4)ccc3C2=O)C(=O)N1 [GT-06388, 1-(5-((4-(3,4-dichloropyridin-2-yl)piperidin-1-yl)methyl)-1-oxoisoindolin-2-yl)dihydropyrimidine-2,4(1H,3H)-dione]
IKZF3
  IKZF3 substrate protein remaining %: B ("B" is defined as 80%< substrate protein remaining %≤ 100%)
IKZF2
  IKZF2 substrate protein remaining %: B ("B" is defined as 80%< substrate protein remaining %≤ 100%)
GSPT1
  GSPT1 substrate protein remaining %: A ("A" is defined as 0% ≤ substrate protein remaining % ≤ 80%)
WEE1
  WEE1 substrate protein remaining %: B ("B" is defined as 80%< substrate protein remaining %≤ 100%)
CK1α
  CK1α substrate protein remaining %: B ("B" is defined as 80%< substrate protein remaining %≤ 100%)
IKZF1
  IKZF1 substrate protein remaining %: B ("B" is defined as 80%< substrate protein remaining %≤ 100%)

## O=C1CCN(N2Cc3cc(CN4CCC(c5ccnc(Cl)c5Cl)CC4)ccc3C2=O)C(=O)N1 [GT-06390, 1-(5-((4-(2,3-dichloropyridin-4-yl)piperidin-1-yl)methyl)-1-oxoisoindolin-2-yl)dihydropyrimidine-2,4(1H,3H)-dione]
IKZF3
  IKZF3 substrate protein remaining %: B ("B" is defined as 80%< substrate protein remaining %≤ 100%)
IKZF2
  IKZF2 substrate protein remaining %: B ("B" is defined as 80%< substrate protein remaining %≤ 100%)
GSPT1
  GSPT1 substrate protein remaining %: A ("A" is defined as 0% ≤ substrate protein remaining % ≤ 80%)
WEE1
  WEE1 substrate protein remaining %: B ("B" is defined as 80%< substrate protein remaining %≤ 100%)
CK1α
  CK1α substrate protein remaining %: B ("B" is defined as 80%< substrate protein remaining %≤ 100%)
IKZF1
  IKZF1 substrate protein remaining %: B ("B" is defined as 80%< substrate protein remaining %≤ 100%)

## O=C1CCN(N2Cc3cc(CN4CC=C(c5cncc(Cl)c5)CC4)ccc3C2=O)C(=O)N1 [GT-06394, 1-(5-((5-chloro-3',6'-dihydro-[3,4'-bipyridin]-1'(2'H)-yl)methyl)-1-oxoisoindolin-2-yl)dihydropyrimidine-2,4(1H,3H)-dione]
IKZF3
  IKZF3 substrate protein remaining %: B ("B" is defined as 80%< substrate protein remaining %≤ 100%)
IKZF2
  IKZF2 substrate protein remaining %: A ("A" is defined as 0% ≤ substrate protein remaining % ≤ 80%)
GSPT1
  GSPT1 substrate protein remaining %: A ("A" is defined as 0% ≤ substrate protein remaining % ≤ 80%)
WEE1
  WEE1 substrate protein remaining %: B ("B" is defined as 80%< substrate protein remaining %≤ 100%)
CK1α
  CK1α substrate protein remaining %: A ("A" is defined as 0% ≤ substrate protein remaining % ≤ 80%)
IKZF1
  IKZF1 substrate protein remaining %: B ("B" is defined as 80%< substrate protein remaining %≤ 100%)

## O=C1CCN(N2Cc3cc(CN4CC=C(c5ncccc5F)CC4)ccc3C2=O)C(=O)N1 [GT-06395, 1-(5-((3-fluoro-3',6'-dihydro-[2,4'-bipyridin]-1'(2'H)-yl)methyl)-1-oxoisoindolin-2-yl)dihydropyrimidine-2,4(1H,3H)-dione]
IKZF3
  IKZF3 substrate protein remaining %: B ("B" is defined as 80%< substrate protein remaining %≤ 100%)
IKZF2
  IKZF2 substrate protein remaining %: B ("B" is defined as 80%< substrate protein remaining %≤ 100%)
GSPT1
  GSPT1 substrate protein remaining %: A ("A" is defined as 0% ≤ substrate protein remaining % ≤ 80%)
WEE1
  WEE1 substrate protein remaining %: B ("B" is defined as 80%< substrate protein remaining %≤ 100%)
CK1α
  CK1α substrate protein remaining %: A ("A" is defined as 0% ≤ substrate protein remaining % ≤ 80%)
IKZF1
  IKZF1 substrate protein remaining %: B ("B" is defined as 80%< substrate protein remaining %≤ 100%)

## O=C1CCN(N2Cc3cc(CN4CCC(c5ccnc(F)c5F)CC4)ccc3C2=O)C(=O)N1 [GT-06396, 1-(5-((4-(2,3-difluoropyridin-4-yl)piperidin-1-yl)methyl)-1-oxoisoindolin-2-yl)dihydropyrimidine-2,4(1H,3H)-dione]
IKZF3
  IKZF3 substrate protein remaining %: B ("B" is defined as 80%< substrate protein remaining %≤ 100%)
IKZF2
  IKZF2 substrate protein remaining %: B ("B" is defined as 80%< substrate protein remaining %≤ 100%)
GSPT1
  GSPT1 substrate protein remaining %: B ("B" is defined as 80%< substrate protein remaining %≤ 100%)
WEE1
  WEE1 substrate protein remaining %: B ("B" is defined as 80%< substrate protein remaining %≤ 100%)
CK1α
  CK1α substrate protein remaining %: A ("A" is defined as 0% ≤ substrate protein remaining % ≤ 80%)
IKZF1
  IKZF1 substrate protein remaining %: B ("B" is defined as 80%< substrate protein remaining %≤ 100%)

## O=C1CCN(N2Cc3cc(CN4CC=C(c5ccnc(F)c5F)CC4)ccc3C2=O)C(=O)N1 [GT-06397, 1-(5-((2',3'-difluoro-3,6-dihydro-[4,4'-bipyridin]-1(2H)-yl)methyl)-1-oxoisoindolin-2-yl)dihydropyrimidine-2,4(1H,3H)-dione]
IKZF3
  IKZF3 substrate protein remaining %: B ("B" is defined as 80%< substrate protein remaining %≤ 100%)
IKZF2
  IKZF2 substrate protein remaining %: A ("A" is defined as 0% ≤ substrate protein remaining % ≤ 80%)
GSPT1
  GSPT1 substrate protein remaining %: A ("A" is defined as 0% ≤ substrate protein remaining % ≤ 80%)
WEE1
  WEE1 substrate protein remaining %: A ("A" is defined as 0% ≤ substrate protein remaining % ≤ 80%)
CK1α
  CK1α substrate protein remaining %: B ("B" is defined as 80%< substrate protein remaining %≤ 100%)
IKZF1
  IKZF1 substrate protein remaining %: B ("B" is defined as 80%< substrate protein remaining %≤ 100%)

## CC1CN(Cc2ccc3c(c2)C(=O)N(N2CCC(=O)NC2=O)C3=O)CC(C)N1C(c1ccccc1)c1ccccc1 (stereo not drawn) [GT-06430, 5-((4-benzhydryl-3,5-dimethylpiperazin-1-yl)methyl)-2-(2,4-dioxotetrahydropyrimidin-1(2H)-yl)isoindoline-1,3-dione]
IKZF3
  IKZF3 substrate protein remaining %: A ("A" is defined as 0% ≤ substrate protein remaining % ≤ 80%)
IKZF2
  IKZF2 substrate protein remaining %: B ("B" is defined as 80%< substrate protein remaining %≤ 100%)
GSPT1
  GSPT1 substrate protein remaining %: A ("A" is defined as 0% ≤ substrate protein remaining % ≤ 80%)
WEE1
  WEE1 substrate protein remaining %: A ("A" is defined as 0% ≤ substrate protein remaining % ≤ 80%)
CK1α
  CK1α substrate protein remaining %: B ("B" is defined as 80%< substrate protein remaining %≤ 100%)
IKZF1
  IKZF1 substrate protein remaining %: A ("A" is defined as 0% ≤ substrate protein remaining % ≤ 80%)
